Data from patent US20260365670A1, “EGFR INHIBITORS AND USES THEREOF” (DIZAL (JIANGSU) PHARMACEUTICAL CO., LTD., priority 2022, published 2026).
Read-outs that look alike come from different tables or passages of the source.

What was measured:
EGFR wild type = target: T1, EGFR wild type (Homo sapiens, UniProt P00533); assay: Inhibition of EGFR wild type biochemical enzymatic activity (HTRF); details: EGFR WT, 1 mM ATP, 1 h, room temperature, read-out: IC50 (nM) @WT
T1 construct: purchased Carna Bio
T1 sequence (P00533 25-1210): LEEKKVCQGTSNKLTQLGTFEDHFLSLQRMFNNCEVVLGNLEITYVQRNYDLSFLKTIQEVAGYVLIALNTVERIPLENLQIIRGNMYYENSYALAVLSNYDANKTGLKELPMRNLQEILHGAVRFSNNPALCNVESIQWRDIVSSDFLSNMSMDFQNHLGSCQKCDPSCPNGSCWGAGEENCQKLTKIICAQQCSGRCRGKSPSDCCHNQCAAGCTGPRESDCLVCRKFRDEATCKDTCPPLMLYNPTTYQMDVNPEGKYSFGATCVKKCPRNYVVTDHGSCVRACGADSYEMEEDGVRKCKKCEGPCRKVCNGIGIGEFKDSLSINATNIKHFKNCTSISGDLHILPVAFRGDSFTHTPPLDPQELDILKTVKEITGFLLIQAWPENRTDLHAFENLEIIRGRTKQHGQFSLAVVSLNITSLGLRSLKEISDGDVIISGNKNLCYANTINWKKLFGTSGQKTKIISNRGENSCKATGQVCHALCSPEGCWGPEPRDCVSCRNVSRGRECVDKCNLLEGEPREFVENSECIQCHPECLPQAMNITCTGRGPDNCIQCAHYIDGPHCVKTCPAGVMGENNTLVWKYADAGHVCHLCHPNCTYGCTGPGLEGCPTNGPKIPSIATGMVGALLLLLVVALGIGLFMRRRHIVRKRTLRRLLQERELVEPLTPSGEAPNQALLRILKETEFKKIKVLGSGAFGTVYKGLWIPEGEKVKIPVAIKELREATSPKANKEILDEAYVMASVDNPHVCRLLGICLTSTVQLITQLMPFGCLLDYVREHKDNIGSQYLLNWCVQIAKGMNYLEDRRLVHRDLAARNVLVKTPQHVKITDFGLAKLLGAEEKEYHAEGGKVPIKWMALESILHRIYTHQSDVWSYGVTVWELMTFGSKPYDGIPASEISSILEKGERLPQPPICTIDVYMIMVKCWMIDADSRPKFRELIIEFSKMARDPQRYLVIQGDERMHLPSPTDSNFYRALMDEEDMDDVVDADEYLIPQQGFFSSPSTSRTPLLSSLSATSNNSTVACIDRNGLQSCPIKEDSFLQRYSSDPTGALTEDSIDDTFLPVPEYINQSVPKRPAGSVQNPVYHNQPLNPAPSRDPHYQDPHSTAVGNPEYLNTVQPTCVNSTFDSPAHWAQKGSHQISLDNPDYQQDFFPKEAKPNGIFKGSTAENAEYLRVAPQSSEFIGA
Method in brief: (§1)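 For IC50 determination by four-parameter logistic fit, EDTA-quenched 1 h room-temperature reactions (1 mM ATP, 1 μM TK Substrate-biotin) were read by HTRF. The 665/615 nm emission ratio after 320 nm excitation served as the activity signal.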

PC-9 = assay: Cell proliferation assay, PC-9 cells (CellTiter-Glo, 72 hours); type: cell-based; details: PC9 cells, CellTiter-Glo, read-out: PC9 GI50
Method in brief: (§2)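 Ba/F3 cells carrying EGFR mutants (5000/well) or PC-9 cells (500/well) in RPMI1640 were dosed with compound series after overnight attachment and grown 72 h. Viability read by CellTiter-Glo, with day-0 counts subtracted; GI50 from curve fits of % proliferation versus DMSO control.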

EGFR L858R/T790M = target: T2, EGFR L858R/T790M (Homo sapiens, UniProt P00533, L858R/T790M); assay: Inhibition of EGFR L858R/T790M biochemical enzymatic activity (HTRF); details: EGFR L858R-T790M, 1 mM ATP, 1 h, room temperature, read-out: IC50 (nM) @L858R-T790M
T2 construct: purchased Carna Bio
T2 sequence (P00533 25-1210 T790M/L858R): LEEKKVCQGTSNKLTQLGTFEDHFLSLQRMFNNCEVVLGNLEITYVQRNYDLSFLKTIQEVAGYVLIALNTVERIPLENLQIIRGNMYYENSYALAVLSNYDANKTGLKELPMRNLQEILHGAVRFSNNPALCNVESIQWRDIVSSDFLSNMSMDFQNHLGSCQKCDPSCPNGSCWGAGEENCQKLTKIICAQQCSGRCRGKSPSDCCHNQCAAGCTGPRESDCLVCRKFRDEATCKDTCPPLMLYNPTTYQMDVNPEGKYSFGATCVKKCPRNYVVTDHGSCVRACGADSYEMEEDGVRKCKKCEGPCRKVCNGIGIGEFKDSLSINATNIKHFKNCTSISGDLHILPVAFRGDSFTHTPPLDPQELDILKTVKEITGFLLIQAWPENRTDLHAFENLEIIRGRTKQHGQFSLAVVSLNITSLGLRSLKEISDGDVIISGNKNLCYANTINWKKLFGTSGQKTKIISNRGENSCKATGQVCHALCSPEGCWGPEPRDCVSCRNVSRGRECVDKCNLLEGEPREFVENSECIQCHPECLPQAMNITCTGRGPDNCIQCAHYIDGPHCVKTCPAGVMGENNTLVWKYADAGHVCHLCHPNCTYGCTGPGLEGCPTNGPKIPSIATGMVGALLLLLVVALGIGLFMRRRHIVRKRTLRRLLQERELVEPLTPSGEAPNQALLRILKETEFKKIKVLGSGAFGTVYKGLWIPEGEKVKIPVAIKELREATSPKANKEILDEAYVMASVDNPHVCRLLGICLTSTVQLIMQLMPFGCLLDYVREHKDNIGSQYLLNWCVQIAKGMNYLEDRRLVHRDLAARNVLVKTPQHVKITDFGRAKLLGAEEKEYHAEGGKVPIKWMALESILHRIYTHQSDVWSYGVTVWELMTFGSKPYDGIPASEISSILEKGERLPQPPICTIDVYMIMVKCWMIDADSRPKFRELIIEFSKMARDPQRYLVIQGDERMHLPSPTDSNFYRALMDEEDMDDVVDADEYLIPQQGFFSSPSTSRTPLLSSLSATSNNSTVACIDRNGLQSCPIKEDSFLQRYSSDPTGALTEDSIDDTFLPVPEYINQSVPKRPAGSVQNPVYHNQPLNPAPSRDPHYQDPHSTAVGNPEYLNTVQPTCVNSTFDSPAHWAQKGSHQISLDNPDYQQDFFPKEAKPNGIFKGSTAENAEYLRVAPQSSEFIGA
Method in brief: as §1

[1] = system: Ba/F3 cells expressing EGFR mutations; assay: Cell proliferation assay, Ba/F3 cells expressing EGFR mutations (CellTiter-Glo, 72 hours); type: cell-based; details: CellTiter-Glo
Method in brief: as §2

[2] = target: T3, EGFR[T790M/C797S/d746-750] (Homo sapiens, UniProt P00533, C797S/DEL746-750/T790M); assay: Inhibition of EGFR[T790M/C797S/d746-750] biochemical enzymatic activity (HTRF); details: EGFR T790M-C797S-Del19, 1 mM ATP, 1 h, room temperature, read-out: IC50 (nM) @T790M - C797S - Del19
T3 construct: purchased Carna Bio
Method in brief: as §1

EGFR (d746-750 C797S) = target: T4, EGFR (d746-750 C797S) (Homo sapiens, UniProt P00533, C797S/DEL746-750); assay: Inhibition of EGFR (d746-750 C797S) biochemical enzymatic activity (HTRF); details: EGFR Del19-C797S, 1 mM ATP, 1 h, room temperature, read-out: IC50 (nM) @Del19-C797S
T4 construct: purchased signalchem
T4 sequence (P00533 with tags, fused parts or gaps DEL746-750/C797S limits assumed): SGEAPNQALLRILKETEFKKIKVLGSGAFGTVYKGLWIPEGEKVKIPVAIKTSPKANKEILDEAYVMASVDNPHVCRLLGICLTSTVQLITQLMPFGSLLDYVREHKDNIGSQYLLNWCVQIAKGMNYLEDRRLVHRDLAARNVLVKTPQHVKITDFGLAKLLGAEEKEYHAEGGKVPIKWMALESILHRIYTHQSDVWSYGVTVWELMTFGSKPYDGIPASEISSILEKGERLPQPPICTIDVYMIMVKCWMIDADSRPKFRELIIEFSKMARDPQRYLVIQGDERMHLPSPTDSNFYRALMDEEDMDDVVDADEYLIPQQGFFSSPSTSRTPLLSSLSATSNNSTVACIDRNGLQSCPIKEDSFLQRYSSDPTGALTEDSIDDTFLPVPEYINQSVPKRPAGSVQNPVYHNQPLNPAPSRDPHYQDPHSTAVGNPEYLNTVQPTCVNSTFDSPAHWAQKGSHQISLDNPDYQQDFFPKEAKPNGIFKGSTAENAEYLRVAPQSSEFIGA
Method in brief: as §1

A-431 = assay: Cell proliferation GI50, A-431 cells (Table 6); type: cell-based
EGFR[T790M/C797S/L858R] = target: T5, EGFR[T790M/C797S/L858R] (Homo sapiens, UniProt P00533, C797S/L858R/T790M); assay: Inhibition of EGFR[T790M/C797S/L858R] biochemical enzymatic activity (HTRF); details: EGFR T790M-C797S-L858R, 1 mM ATP, 1 h, room temperature, read-out: IC50 (nM) @T790M- C797S - L858R
T5 construct: purchased Carna Bio
Method in brief: as §1

EGFR L858R = target: T6, EGFR L858R (Homo sapiens, UniProt P00533, L858R); assay: Inhibition of EGFR L858R biochemical enzymatic activity (HTRF); details: 1 mM ATP, 1 h, room temperature, read-out: IC50 (nM) @L858R
T6 construct: purchased Carna Bio
Method in brief: as §1

EGFR Exon19Del = target: T7, EGFR Exon19Del (Homo sapiens, UniProt P00533, DEL746-750); assay: Inhibition of EGFR Exon19Del biochemical enzymatic activity (HTRF); details: EGFR Del19, 1 mM ATP, 1 h, room temperature, read-out: IC50 @Del19
T7 construct: purchased Carna Bio
T7 sequence (P00533 with tags, fused parts or gaps DEL746-750 limits assumed): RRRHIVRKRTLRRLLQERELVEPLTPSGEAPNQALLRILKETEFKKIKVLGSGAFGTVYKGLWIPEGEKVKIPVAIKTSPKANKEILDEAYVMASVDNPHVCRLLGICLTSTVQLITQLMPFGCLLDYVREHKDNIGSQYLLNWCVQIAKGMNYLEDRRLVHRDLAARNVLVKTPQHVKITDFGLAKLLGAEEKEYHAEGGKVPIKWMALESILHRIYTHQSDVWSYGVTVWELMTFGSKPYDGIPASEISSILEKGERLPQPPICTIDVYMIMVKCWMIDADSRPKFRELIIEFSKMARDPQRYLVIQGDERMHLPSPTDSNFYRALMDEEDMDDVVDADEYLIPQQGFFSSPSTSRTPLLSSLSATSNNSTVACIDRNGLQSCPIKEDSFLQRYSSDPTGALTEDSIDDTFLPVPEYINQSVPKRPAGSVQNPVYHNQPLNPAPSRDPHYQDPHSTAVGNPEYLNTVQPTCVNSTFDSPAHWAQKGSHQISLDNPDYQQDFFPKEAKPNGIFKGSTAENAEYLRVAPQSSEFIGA
Method in brief: as §1

EGFR (C797S L858R) = target: T8, EGFR (C797S L858R) (Homo sapiens, UniProt P00533, C797S/L858R); assay: Inhibition of EGFR (C797S L858R) biochemical enzymatic activity (HTRF); details: EGFR L858-C797S, 1 mM ATP, 1 h, room temperature, read-out: IC50 (nM) @L858-C797S
T8 construct: purchased signalchem
T8 sequence (P00533 25-1210 C797S/L858R): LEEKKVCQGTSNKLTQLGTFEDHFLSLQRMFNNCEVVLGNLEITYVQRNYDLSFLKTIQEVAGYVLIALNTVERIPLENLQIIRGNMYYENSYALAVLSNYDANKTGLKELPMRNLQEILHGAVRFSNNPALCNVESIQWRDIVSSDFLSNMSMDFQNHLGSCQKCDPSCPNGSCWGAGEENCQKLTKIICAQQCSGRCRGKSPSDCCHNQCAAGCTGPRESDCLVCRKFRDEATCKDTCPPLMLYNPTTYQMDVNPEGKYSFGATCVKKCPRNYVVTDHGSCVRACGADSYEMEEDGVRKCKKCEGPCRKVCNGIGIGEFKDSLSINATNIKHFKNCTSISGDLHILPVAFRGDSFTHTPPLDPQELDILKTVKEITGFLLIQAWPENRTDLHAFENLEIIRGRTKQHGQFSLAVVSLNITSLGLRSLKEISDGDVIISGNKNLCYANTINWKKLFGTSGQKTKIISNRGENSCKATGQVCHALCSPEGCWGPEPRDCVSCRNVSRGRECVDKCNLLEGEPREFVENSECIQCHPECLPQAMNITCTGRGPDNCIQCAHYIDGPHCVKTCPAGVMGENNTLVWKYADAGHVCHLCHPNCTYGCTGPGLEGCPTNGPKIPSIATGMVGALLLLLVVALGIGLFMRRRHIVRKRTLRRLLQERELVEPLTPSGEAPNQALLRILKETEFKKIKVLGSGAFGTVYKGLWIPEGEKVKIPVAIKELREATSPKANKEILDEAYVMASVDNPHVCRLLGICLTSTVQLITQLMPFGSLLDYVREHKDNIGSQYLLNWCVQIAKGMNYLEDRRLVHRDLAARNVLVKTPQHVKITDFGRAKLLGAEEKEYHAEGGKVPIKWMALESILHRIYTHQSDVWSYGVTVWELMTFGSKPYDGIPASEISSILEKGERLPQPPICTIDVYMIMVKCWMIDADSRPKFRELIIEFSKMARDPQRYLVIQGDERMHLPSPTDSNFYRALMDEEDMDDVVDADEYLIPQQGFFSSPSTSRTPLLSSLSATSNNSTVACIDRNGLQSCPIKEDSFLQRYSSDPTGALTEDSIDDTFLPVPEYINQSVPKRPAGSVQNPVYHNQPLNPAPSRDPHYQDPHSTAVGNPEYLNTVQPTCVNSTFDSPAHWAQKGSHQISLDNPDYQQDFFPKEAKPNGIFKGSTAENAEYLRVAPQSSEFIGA
Method in brief: as §1

EGFR Exon19Del/T790M = target: T9, EGFR Exon19Del/T790M (Homo sapiens, UniProt P00533, DEL746-750/T790M); assay: Inhibition of EGFR Exon19Del/T790M biochemical enzymatic activity (HTRF); details: EGFR Del19-T790M, 1 mM ATP, 1 h, room temperature, read-out: IC50 (nM) @Del19-T790M
T9 construct: purchased Carna Bio
Method in brief: as §1

[3] = BaF3 cells, EGFR DEL19-C797S, read-out: DEL19-C797S/BaF3 GI50
[4] = BaF3 cells, EGFR DEL19-T790-C797S, read-out: DEL19-T790-C797S/BaF3 GI50
[5] = BaF3 cells, EGFR L858R, read-out: L858R/BaF3 GI50
[6] = BaF3 cells, EGFR L858R-C797S, read-out: L858R-C797S/BaF3 GI50
[7] = BaF3 cells, EGFR L858R-T790-C797S, read-out: L858R-T790-C797S/BaF3 GI50
[8] = BaF3 cells, EGFR L858R-T790M, read-out: L858R-T790M/BaF3 GI50
[9] = EGFR DEL19-T790M, read-out: DEL19-T790M GI50
[10] = Mus musculus, BaF3, 72 h, BaF3 cells, EGFR DEL19-C797S, read-out: DEL19-C797S/BaF3 GI50
[11] = Mus musculus, BaF3, 72 h, BaF3 cells, EGFR DEL19-T790-C797S, read-out: DEL19-T790-C797S/BaF3 GI50
[12] = Mus musculus, BaF3, 72 h, BaF3 cells, EGFR L858R, read-out: L858R/BaF3 GI50
[13] = Mus musculus, BaF3, 72 h, BaF3 cells, EGFR L858R-C797S, read-out: L858R-C797S/BaF3 GI50
[14] = Mus musculus, BaF3, 72 h, BaF3 cells, EGFR L858R-T790-C797S, read-out: L858R-T790-C797S/BaF3 GI50
[15] = Mus musculus, BaF3, 72 h, BaF3 cells, EGFR L858R-T790M, read-out: L858R-T790M/BaF3 GI50
[16] = Mus musculus, BaF3, 72 h, EGFR DEL19-T790M, read-out: DEL19-T790M GI50
[17] = Homo sapiens, A-431, A-431 cells

Work on `CN1CC2(C1)CN(c1ccc3nc4n(c3c1)C13CCC(CN(CCOc5c(cnn5C)-c5cc(cn(C)c5=O)C(=O)N4)C1)C3)C2` (single isomer, unassigned) [Example A92A] yielded an IC50 (EGFR wild type) of over 5000 nM, a GI50 (PC-9) of 522 nM and an IC50 (EGFR L858R/T790M) of over 5000 nM. For the same compound, the GI50 [1, 3] was 102 nM, the GI50 [1, 4] was 112 nM and the GI50 [1, 5] was 113 nM. It also gave a GI50 [1, 6] of 122 nM, a GI50 [1, 7] of 152 nM and a GI50 [1, 8] of 310 nM. For the same compound, the GI50 [1, 9] was 80 nM, the IC50 [2] was 3960 nM and the IC50 (EGFR (d746-750 C797S)) was 449 nM. It also gave a GI50 (A-431; A-431 cells) of 2100 nM, an IC50 (EGFR[T790M/C797S/L858R]) of over 5000 nM and an IC50 (EGFR L858R) of 1150 nM. For the same compound, the IC50 (EGFR Exon19Del) was 573 nM, the IC50 (EGFR (C797S L858R)) was 2790 nM and the IC50 (EGFR Exon19Del/T790M) was over 5000 nM.

Compound `C[C@@H]1CCCOc2c(cnn2C)-c2cc(cn(C)c2=O)C(=O)Nc2nc3ccc(Br)cc3n2C1` [Example M3, (11R)-16-Bromo-5,11,26-trimethyl-7-oxa-4,5,13,20,22,26-hexaazapentacyclo[22.3.1.0^{2,6}.0^{13,21}.0^{14,19}]octacosa-1(28),2(6),3,14,16,18,20,24-octaene-23,27-dione] has an IC50 (EGFR wild type) of over 5000 nM, a GI50 (PC-9; Homo sapiens, PC-9, 72 h) of 252 nM and an IC50 (EGFR L858R/T790M) of 2190 nM. For the same compound, the GI50 [1, 10] was 89 nM, the GI50 [1, 11] was 364 nM and the GI50 [1, 12] was 257 nM. It also gave a GI50 [1, 13] of 344 nM, a GI50 [1, 14] of 159 nM and a GI50 [1, 15] of 982 nM. The GI50 [1, 16] was 300 nM, the IC50 [2] was 19 nM and the IC50 (EGFR (d746-750 C797S)) was 60 nM. For the same compound, the GI50 (A-431; [17]) was 1950 nM, the IC50 (EGFR[T790M/C797S/L858R]) was 2470 nM and the IC50 (EGFR L858R) was 2460 nM. The IC50 (EGFR Exon19Del) was 204 nM, the IC50 (EGFR (C797S L858R)) was 1700 nM and the IC50 (EGFR Exon19Del/T790M) was 27 nM.

`CCN1CCN(c2ccc3nc4n(c3c2)C23CCC(CN(CCOc5c(cnn5C)-c5cc(cn(C)c5=O)C(=O)N4)C2)C3)CC1` (single isomer, unassigned) [Example A107B] gave an IC50 (EGFR wild type) of 20 nM, a GI50 (PC-9) of 5.2 nM and an IC50 (EGFR L858R/T790M) of 2.7 nM. The GI50 [1, 3] was 0.63 nM, the GI50 [1, 4] was 1.1 nM and the GI50 [1, 5] was 1 nM. For the same compound, the GI50 [1, 6] was 2.4 nM, the GI50 [1, 7] was 1.5 nM and the GI50 [1, 8] was 4.1 nM. For the same compound, the GI50 [1, 9] was 1.5 nM, the IC50 [2] was 2 nM and the IC50 (EGFR (d746-750 C797S)) was 0.79 nM. For the same compound, the GI50 (A-431; A-431 cells) was 267 nM, the IC50 (EGFR[T790M/C797S/L858R]) was 2.1 nM and the IC50 (EGFR L858R) was 3 nM. It also gave an IC50 (EGFR Exon19Del) of 1.8 nM, an IC50 (EGFR (C797S L858R)) of 1.9 nM and an IC50 (EGFR Exon19Del/T790M) of 1.8 nM.

With `C[C@@H]1CCCOc2c(cnn2C)-c2cc(cn(C)c2=O)C(=O)Nc2nc3ccc(N4CCC5(CC4)CCN5C)cc3n2C1` [Example A52] the IC50 (EGFR wild type) was 54 nM, the GI50 (PC-9; Homo sapiens, PC-9, 72 h) was 15.4 nM and the IC50 (EGFR L858R/T790M) was 6.6 nM. The GI50 [1, 10] was 1.3 nM, the GI50 [1, 11] was 6.3 nM and the GI50 [1, 12] was 8.1 nM. The GI50 [1, 13] was 8.4 nM, the GI50 [1, 14] was 9.6 nM and the GI50 [1, 15] was 13.1 nM. The GI50 [1, 16] was 9.6 nM, the IC50 [2] was 3.4 nM and the IC50 (EGFR (d746-750 C797S)) was 1.4 nM. It also gave a GI50 (A-431; [17]) of 480 nM, an IC50 (EGFR[T790M/C797S/L858R]) of 3.9 nM and an IC50 (EGFR L858R) of 6.3 nM. For the same compound, the IC50 (EGFR Exon19Del) was 1.3 nM, the IC50 (EGFR (C797S L858R)) was 4.7 nM and the IC50 (EGFR Exon19Del/T790M) was 3.5 nM.
